Test system: Cottontail Rabbit Papilloma Virus (CRPV) cutaneous warts
Assay: Cottontail Rabbit Papilloma Virus (CRPV) model of cutaneous warts: wart surface area after topical gel
Assay type: in vivo, Hra(NZW)SPF New Zealand White Rabbits
Description: Efficacy of Ingenol-3-angelate (PEP005) Topical Gel in a Cottontail Rabbit Papilloma Virus (CRPV) model of cutaneous warts in Hra(NZW)SPF New Zealand White Rabbits.
Ch 25. In: Zak O, Sande M A, editors. Handbook of animal models of infection. New York: Academic Press; 1999. p. 1039-47). Concentrations of the inoculant were selected empirically based on published information for the CRPV model in which cutaneous papillomas (warts) were induced in rabbits (Christensen N D. Cottontail rabbit papillomavirus (CRPV) model system to test antiviral and immunotherapeutic strategies. Antiviral chemistry & chemotherapy 2005; 16(6):355-62). The percutaneous route was selected because this route has been successfully used to establish cutaneous papilloma (wart) formation in rabbits following inoculation with CRPV DNA.
Ten female Hra:(NZW)SPF New Zealand White (NZW) female rabbits were randomly assigned to four dose groups, three rabbits per dose group in Groups 1 through 3 and one rabbit in Group 4.
Four days before inoculation (DS-4), the backs of the rabbits were shaved over an area encompassing all eight exposure sites using an electric clipper with an appropriate blade. Following clipping, the skin was chemically depilated with Veet® (distributed by Reckitt Benckiser Inc., Parsippany, N.J., USA). The clipped area (approximately 10 cm×20 cm) extended from the shoulders to the hip joints of each rabbit and was approximately 10 cm wide (extending ventrolaterally from the dorsal midline approximately 5 cm on each side). Any re-growth of hair was carefully clipped, as needed throughout the study.
Three days before inoculation, rabbits were anesthetized with isoflourane/oxygen and the exposure sites on each rabbit were tattooed (Aims Black Pigment #242, AIMS Inc, Piscataway, N.J., USA, lot number F0707A, expiration date 30 Jun. 2008) on either side of each inoculation site. Each exposure site was carefully scarified using a scalpel blade (#60) to create a brush burn-like lesion in order to promote wart growth following inoculation. Rabbits were monitored constantly for signs of regular breathing and comfort while anesthetized and until full recovery from anesthesia. […]
Daily observations for development of the warts began during week 4 and continued until the first day of test article or placebo administration. The length and width of each cutaneous wart was recorded from the day of first observation to the completion of the study.
Dose administration of PEP005 Topical Gel or placebo began on DS 50. […] The treatment area of each dosing site was determined from the most recent length and width measurements of each wart (mm^2). […]

## C/C=C(/C)C(=O)O[C@H]1C(C)=C[C@]23C(=O)[C@@H](C=C(CO)[C@@H](O)[C@]12O)[C@H]1[C@@H](C[C@H]3C)C1(C)C [PEP005, ingenol-3-angelate]
0.1% PEP005, 3 day treatment, Days 51-57
  Average percentage change in wart area relative to Day 50: 2.1%
0.1% PEP005, 3 day treatment, Days 56-64
  Average percentage change in wart area relative to Day 50: −4.7%
0.1% PEP005, 5 day treatment, Days 51-57
  Average percentage change in wart area relative to Day 50: 17.5%
0.1% PEP005, 5 day treatment, Days 56-64
  Average percentage change in wart area relative to Day 50: 3.9%
